Laboratory results from the NIST ThermoML archive (doi:10.1016/j.jct.2016.10.042).

Experiment: xn = mol fraction of the nth substance listed
Settings: 101 kPa, Liquid, Pycnometric method

C=CC(=O)OCC [ethyl propenoate] + C1CCOC1
mass density [kg/m3]
Settings | 293.15 K | 298.15 K | 303.15 K | 308.15 K | 313.15 K | 318.15 K
x2 = 0 | 921.76 | 915.95 | 910.14 | 904.33 | 898.52 | 892.71
x2 = 0.0825 | 920.35 | 914.64 | 908.93 | 903.22 | 897.5 | 891.78
x2 = 0.167 | 918.74 | 913.11 | 907.48 | 901.85 | 896.22 | 890.59
x2 = 0.2302 | 917.35 | 911.79 | 906.23 | 900.67 | 895.1 | 889.53
x2 = 0.316 | 915.21 | 909.73 | 904.25 | 898.77 | 893.29 | 887.81
x2 = 0.3892 | 913.14 | 907.73 | 902.32 | 896.91 | 891.5 | 886.09
x2 = 0.4603 | 910.93 | 905.58 | 900.23 | 894.88 | 889.53 | 884.18
x2 = 0.5286 | 908.61 | 903.32 | 898.03 | 892.74 | 887.45 | 882.16
x2 = 0.5947 | 906.16 | 900.93 | 895.7 | 890.47 | 885.24 | 880
x2 = 0.6605 | 903.54 | 898.36 | 893.18 | 888 | 882.82 | 877.64
x2 = 0.7283 | 900.64 | 895.52 | 890.4 | 885.28 | 880.16 | 875.04
x2 = 0.7874 | 897.95 | 892.88 | 887.81 | 882.74 | 877.67 | 872.6
x2 = 0.8689 | 894 | 888.98 | 883.96 | 878.94 | 873.92 | 868.9
x2 = 0.936 | 890.52 | 885.53 | 880.54 | 875.55 | 870.56 | 865.57

C=CC(=O)OC [methyl propenoate] + C1CCOC1
mass density [kg/m3]
Settings | 293.15 K | 298.15 K | 303.15 K | 308.15 K | 313.15 K | 318.15 K
x2 = 0 | 953.51 | 947.56 | 941.61 | 935.66 | 929.71 | 923.76
x2 = 0.0773 | 950.05 | 944.24 | 938.43 | 932.62 | 926.81 | 921
x2 = 0.1554 | 946.35 | 940.67 | 934.99 | 929.31 | 923.63 | 917.95
x2 = 0.2064 | 943.74 | 938.15 | 932.56 | 926.97 | 921.37 | 915.77
x2 = 0.2545 | 941.15 | 935.63 | 930.11 | 924.58 | 919.05 | 913.52
x2 = 0.3215 | 937.33 | 931.89 | 926.45 | 921 | 915.55 | 910.1
x2 = 0.3989 | 932.62 | 927.26 | 921.9 | 916.54 | 911.17 | 905.8
x2 = 0.4655 | 928.35 | 923.06 | 917.77 | 912.47 | 907.17 | 901.87
x2 = 0.53 | 924.03 | 918.8 | 913.57 | 908.33 | 903.09 | 897.85
x2 = 0.6023 | 918.98 | 913.81 | 908.64 | 903.47 | 898.3 | 893.13
x2 = 0.6834 | 913.02 | 907.92 | 902.82 | 897.72 | 892.62 | 887.52
x2 = 0.7632 | 906.87 | 901.83 | 896.79 | 891.75 | 886.7 | 881.65
x2 = 0.8468 | 900.16 | 895.17 | 890.18 | 885.19 | 880.19 | 875.19
x2 = 0.9316 | 893 | 888.04 | 883.08 | 878.12 | 873.16 | 868.2

C=CC(=O)OC(C)(C)C [tert-butyl acrylate] + C1CCOC1
mass density [kg/m3]
Settings | 293.15 K | 298.15 K | 303.15 K | 308.15 K | 313.15 K | 318.15 K
x2 = 0 | 884.13 | 879.66 | 875.2 | 870.74 | 866.28 | 861.82
x2 = 0.0736 | 884.47 | 880.01 | 875.55 | 871.08 | 866.61 | 862.14
x2 = 0.1489 | 884.84 | 880.36 | 875.88 | 871.4 | 866.92 | 862.44
x2 = 0.2121 | 885.14 | 880.65 | 876.16 | 871.67 | 867.17 | 862.67
x2 = 0.2773 | 885.43 | 880.92 | 876.41 | 871.9 | 867.39 | 862.88
x2 = 0.362 | 885.78 | 881.25 | 876.71 | 872.17 | 867.63 | 863.09
x2 = 0.4382 | 886.06 | 881.5 | 876.94 | 872.37 | 867.8 | 863.23
x2 = 0.5024 | 886.28 | 881.69 | 877.1 | 872.5 | 867.9 | 863.3
x2 = 0.5815 | 886.5 | 881.87 | 877.24 | 872.61 | 867.98 | 863.35
x2 = 0.6532 | 886.66 | 882 | 877.34 | 872.67 | 868 | 863.33
x2 = 0.7268 | 886.79 | 882.08 | 877.37 | 872.66 | 867.95 | 863.24
x2 = 0.7921 | 886.88 | 882.13 | 877.38 | 872.62 | 867.86 | 863.1
x2 = 0.8698 | 886.97 | 882.15 | 877.33 | 872.51 | 867.69 | 862.86
x2 = 0.9352 | 887 | 882.12 | 877.24 | 872.36 | 867.48 | 862.59

C=CC(=O)OCCCC [butyl 2-propenoate] + C1CCOC1
mass density [kg/m3]
Settings | 293.15 K | 298.15 K | 303.15 K | 308.15 K | 313.15 K | 318.15 K
x2 = 0 | 898.85 | 894.1 | 889.35 | 884.6 | 879.85 | 875.1
x2 = 0.0712 | 898.62 | 893.89 | 889.16 | 884.42 | 879.68 | 874.94
x2 = 0.1406 | 898.39 | 893.66 | 888.93 | 884.19 | 879.45 | 874.71
x2 = 0.208 | 898.1 | 893.37 | 888.64 | 883.91 | 879.17 | 874.43
x2 = 0.2779 | 897.74 | 893.01 | 888.27 | 883.53 | 878.79 | 874.05
x2 = 0.3685 | 897.14 | 892.4 | 887.66 | 882.91 | 878.16 | 873.41
x2 = 0.4339 | 896.6 | 891.85 | 887.1 | 882.35 | 877.59 | 872.83
x2 = 0.4996 | 895.97 | 891.21 | 886.45 | 881.69 | 876.92 | 872.15
x2 = 0.5642 | 895.25 | 890.48 | 885.71 | 880.93 | 876.15 | 871.37
x2 = 0.6426 | 894.22 | 889.43 | 884.64 | 879.85 | 875.05 | 870.25
x2 = 0.7208 | 893.03 | 888.22 | 883.41 | 878.59 | 873.77 | 868.95
x2 = 0.7956 | 891.72 | 886.88 | 882.04 | 877.2 | 872.36 | 867.51
x2 = 0.8642 | 890.32 | 885.45 | 880.58 | 875.71 | 870.84 | 865.97
x2 = 0.9322 | 888.76 | 883.86 | 878.96 | 874.05 | 869.14 | 864.23
